Where two headings read alike, the source gives them in different places.
What was measured:
factor Xa = factor Xa (Bos taurus, UniProt P00743); assay: inhibition of factor Xa, dissociation constant Ki; assay type: biochemical; settings: Table 1
Procedure: (§1) The biological activity of the compounds of the present invention was determined in vitro as well as in vivo.

thrombin = thrombin (Bos taurus, UniProt P00735)
[1] = system: coagulation in human plasma; assay: thrombin time (TT) in human plasma
tPA = tPA (Homo sapiens, UniProt P00750); assay: inhibition of tPA, dissociation constant Ki; settings: read-out: Ki, tPA; Table 1
plasmin = plasmin (Homo sapiens, UniProt P00747); assay: inhibition of plasmin, dissociation constant Ki; settings: read-out: Ki, Plasmin; Table 1
[2] = system: coagulation in human plasma; assay: prothrombin time (PT, Quick value) in human plasma
factor XIIa = target: T1, factor XIIa (Homo sapiens, UniProt P00748); assay: inhibition of factor XIIa, dissociation constant Ki; settings: read-out: Ki, Factor XIIa; Table 1
T1 sequence (P00748 373-615 limits assumed): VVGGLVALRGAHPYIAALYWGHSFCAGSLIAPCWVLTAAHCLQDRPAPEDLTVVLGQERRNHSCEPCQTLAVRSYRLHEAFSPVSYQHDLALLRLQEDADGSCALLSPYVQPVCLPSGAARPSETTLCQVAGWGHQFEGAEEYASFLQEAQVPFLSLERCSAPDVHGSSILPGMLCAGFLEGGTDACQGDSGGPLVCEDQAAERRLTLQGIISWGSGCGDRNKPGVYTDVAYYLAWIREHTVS

plasma kallikrein = plasma kallikrein (Homo sapiens, UniProt P03952); assay: inhibition of plasma kallikrein, dissociation constant Ki; settings: read-out: Ki, Plasma kallikr.; Table 1
glandular kallikrein = glandular kallikrein (Sus scrofa, UniProt P00752); assay: inhibition of glandular kallikrein, dissociation constant Ki; settings: read-out: Ki, Gland. kallikr.; Table 1
[3] = system: coagulation in human plasma; assay: activated partial thromboplastin time (aPTT) in human plasma
trypsin = target: T2, trypsin (Bos taurus, UniProt P00760); assay: inhibition of trypsin, dissociation constant Ki; assay type: biochemical; design: thrombin and the related enzymes trypsin, plasmin, factor Xa, factor XIIa; settings: Table 1; read-out: Ki, Trypsin
T2 sequence (P00760 24-246): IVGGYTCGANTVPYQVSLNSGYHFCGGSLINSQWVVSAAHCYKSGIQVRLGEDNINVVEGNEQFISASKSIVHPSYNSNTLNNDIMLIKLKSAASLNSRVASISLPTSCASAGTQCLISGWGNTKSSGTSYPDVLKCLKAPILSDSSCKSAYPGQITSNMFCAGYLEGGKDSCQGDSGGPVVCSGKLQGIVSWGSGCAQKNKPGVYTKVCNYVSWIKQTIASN
Procedure: as §1

[4] = read-out: Ki, Thrombin, Table 1
[5] = read-out: Thrombin inhibition Ki, Table 7

glandular kallikrein, sequence (P00752 8-246): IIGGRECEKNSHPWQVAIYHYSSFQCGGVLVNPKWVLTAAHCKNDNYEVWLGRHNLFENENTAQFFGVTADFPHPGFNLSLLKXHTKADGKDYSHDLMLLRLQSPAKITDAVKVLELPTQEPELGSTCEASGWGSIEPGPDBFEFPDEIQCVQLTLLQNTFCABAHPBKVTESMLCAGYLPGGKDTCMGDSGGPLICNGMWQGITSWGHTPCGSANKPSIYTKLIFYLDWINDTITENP
plasmin, sequence (P00747 581-810 limits assumed): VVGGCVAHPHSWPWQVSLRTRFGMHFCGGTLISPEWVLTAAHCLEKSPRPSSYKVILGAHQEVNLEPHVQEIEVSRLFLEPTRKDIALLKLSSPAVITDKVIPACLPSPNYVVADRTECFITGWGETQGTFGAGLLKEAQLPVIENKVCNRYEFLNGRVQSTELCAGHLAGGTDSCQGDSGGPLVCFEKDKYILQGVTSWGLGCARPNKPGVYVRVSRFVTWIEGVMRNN
plasmin, sequence (P00747 97-580 partner limits assumed): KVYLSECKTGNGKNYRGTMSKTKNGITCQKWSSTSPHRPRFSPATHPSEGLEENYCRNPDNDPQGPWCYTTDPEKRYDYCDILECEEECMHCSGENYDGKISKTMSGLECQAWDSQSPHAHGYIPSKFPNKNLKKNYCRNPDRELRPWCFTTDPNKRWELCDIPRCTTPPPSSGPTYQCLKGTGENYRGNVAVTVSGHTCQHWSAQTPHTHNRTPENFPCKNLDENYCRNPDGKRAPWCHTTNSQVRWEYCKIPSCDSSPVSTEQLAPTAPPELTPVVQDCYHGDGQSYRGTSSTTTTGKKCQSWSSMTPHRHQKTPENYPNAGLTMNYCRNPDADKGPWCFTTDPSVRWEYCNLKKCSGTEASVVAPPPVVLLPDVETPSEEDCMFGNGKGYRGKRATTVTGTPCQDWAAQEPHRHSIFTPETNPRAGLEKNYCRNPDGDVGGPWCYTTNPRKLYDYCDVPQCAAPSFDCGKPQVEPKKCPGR
tPA, sequence (P00750 36-562): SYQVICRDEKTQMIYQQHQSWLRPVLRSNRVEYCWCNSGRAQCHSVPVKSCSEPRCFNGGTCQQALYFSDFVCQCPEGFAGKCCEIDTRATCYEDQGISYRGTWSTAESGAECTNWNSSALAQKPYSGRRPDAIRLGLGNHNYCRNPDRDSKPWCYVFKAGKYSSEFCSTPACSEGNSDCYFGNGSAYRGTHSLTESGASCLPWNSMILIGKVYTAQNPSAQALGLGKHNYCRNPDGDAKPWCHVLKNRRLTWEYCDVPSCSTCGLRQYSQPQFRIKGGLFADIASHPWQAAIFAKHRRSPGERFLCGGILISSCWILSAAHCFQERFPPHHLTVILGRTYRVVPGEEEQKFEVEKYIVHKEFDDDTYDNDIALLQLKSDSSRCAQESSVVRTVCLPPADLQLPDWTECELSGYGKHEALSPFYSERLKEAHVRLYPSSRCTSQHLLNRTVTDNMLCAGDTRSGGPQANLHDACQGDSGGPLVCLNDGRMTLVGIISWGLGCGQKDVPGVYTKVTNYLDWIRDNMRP
plasma kallikrein, sequence (P03952 391-638 limits assumed, species assumed): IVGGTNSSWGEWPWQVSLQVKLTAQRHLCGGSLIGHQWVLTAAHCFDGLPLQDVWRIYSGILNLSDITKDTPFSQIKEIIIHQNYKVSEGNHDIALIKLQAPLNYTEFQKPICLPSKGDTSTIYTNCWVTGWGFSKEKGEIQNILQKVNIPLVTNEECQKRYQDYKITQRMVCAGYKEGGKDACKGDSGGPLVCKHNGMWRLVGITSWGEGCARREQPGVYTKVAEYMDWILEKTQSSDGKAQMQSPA
plasma kallikrein, sequence (P03952 20-390 partner limits assumed, species assumed): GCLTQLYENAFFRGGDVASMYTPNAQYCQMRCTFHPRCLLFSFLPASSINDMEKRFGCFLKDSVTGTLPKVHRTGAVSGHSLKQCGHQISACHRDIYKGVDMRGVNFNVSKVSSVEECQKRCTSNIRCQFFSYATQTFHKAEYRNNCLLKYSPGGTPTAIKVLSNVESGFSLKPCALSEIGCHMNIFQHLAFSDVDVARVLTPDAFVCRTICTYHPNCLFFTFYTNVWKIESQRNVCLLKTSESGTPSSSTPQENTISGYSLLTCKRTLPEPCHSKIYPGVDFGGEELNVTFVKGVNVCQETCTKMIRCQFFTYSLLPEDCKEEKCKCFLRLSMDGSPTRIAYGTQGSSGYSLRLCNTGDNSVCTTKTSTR
factor Xa, sequence (P00743 234-492 limits assumed): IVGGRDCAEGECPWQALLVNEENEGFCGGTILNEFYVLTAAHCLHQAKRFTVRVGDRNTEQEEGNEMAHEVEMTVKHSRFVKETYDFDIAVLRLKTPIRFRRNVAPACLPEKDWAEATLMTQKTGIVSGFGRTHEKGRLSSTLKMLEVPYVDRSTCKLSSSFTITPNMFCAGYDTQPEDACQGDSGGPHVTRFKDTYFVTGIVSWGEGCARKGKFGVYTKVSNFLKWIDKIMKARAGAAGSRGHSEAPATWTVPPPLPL
factor Xa, sequence (P00743 41-180 partner limits assumed): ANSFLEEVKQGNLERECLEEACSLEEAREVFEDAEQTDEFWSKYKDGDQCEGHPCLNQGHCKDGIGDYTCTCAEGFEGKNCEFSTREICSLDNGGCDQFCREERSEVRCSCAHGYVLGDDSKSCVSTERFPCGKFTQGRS

| Ki (factor Xa) [µM] | Ki (thrombin; [4]) [nM] | Ki (thrombin; [5]) [nM] | Ki (tPA) [µM] | Ki (plasmin) [µM] | Ki (factor XIIa) [µM] | Ki (plasma kallikrein) [µM] | Ki (glandular kallikrein) [mM] | Ki (trypsin) [nM] | SMILES | Concentr. to double the Thrombin time [1] [µmol/L] | Concentr. to double the Prothrombin time [2] [µmol/L] | Concentr. to double the aPTT [3] [µmol/L] | concentration to double the TT [1] | concentration to double the PT [2] [μmol/1] | concentration to double the aPTT [3] [μmol/1] |
| --- | --- | --- | --- | --- | --- | --- | --- | --- | --- | --- | --- | --- | --- | --- | --- |
| 6.7 | 31 | 31 | 82 | 29 | 70 | 130 | > 1 | 440 | CC1(C)C2CCC1(CS(=O)(=O)N[C@@H](Cc1cccc(C(=N)N)c1)C(=O)N1CCN(S(C)(=O)=O)CC1)C(=O)C2 (single isomer, unassigned) [Compound 8] | 0.13 | 2.0 | 1.2 |  |  |  |
| 1.1 | 12 | 12 | 20 | 14 | 61 | 25 | > 1 | 220 | CC1(C)C2CCC1(CS(=O)(=O)N[C@@H](Cc1cccc(C(=N)N)c1)C(=O)N1CCN(S(C)(=O)=O)CC1)C(=O)C2 (single isomer, unassigned) [Compound 7] | 0.075 | 1.0 | 0.55 | less than 10^-7 mol/1 | ≤ 1 | ≤ 1 |
